According to US8772283B2, “Imidazo-oxazine compound or salt thereof” (Taiho Pharmaceutical Co., Ltd., priority 2011, dated 2014):

What was measured:
[1] = tested on: S6 ribosomal protein (S6RP) Ser240/Ser244 phosphorylation; assay: Phosphorylated S6RP (Ser240/Ser244) inhibitory activity in cultured cell A2780 (Meso Scale Discovery assay); assay type: cell-based; conditions: A2780 cells, 3 hours treatment; average±standard deviation of three independent runs
Experimental: (§1) To evaluate the inhibitory activity of the above compounds against AKT activity, AKT Ser 473 phosphorylation and phosphorylation of S6 ribosomal protein (S6RP) (a downstream factor of Akt signal) at Ser240/Ser244, which serve as indices for the activation status of AKT, were measured in extracts of cultured cells which had been treated with the above compounds. For the measurement, assays (manufactured by Meso Scale Discovery) utilizing electrochemiluminescence based on the ELISA principle were used for both AKT Ser473 and S6RP Ser240/Ser244.
(§2) In 10% FBS-containing RPMI1640 medium (Invitrogen), ovarian cancer-derived A2780 cells in the logarithmic growth phase were seeded at 4.5×10^4 cells/150 μL/well into polylysine coated 96-well flat-bottom plates, and cultured for one day in an incubator at 5% CO2, 37° C., and 100% humidity.
(§3) Each compound of the present invention was supplied as a stock solution prepared at a concentration of 10 mM in DMSO. Using this solution, a dilution series was prepared in DMSO solvent at 200-fold of the final concentrations (10, 3, 1, 0.3, 0.1, 0.03, 0.01, 0.003 μM). The day after the cells were seeded, the compound dilution series at a 200-fold concentration was diluted 50-fold in medium for cell culture. To each well of the aforementioned A2780 cell culture plates, 50 μL of the diluted compound dilution series was added. The plates were then placed back in the incubator, and the culture was continued for 3 hours at 5% CO2, 37° C., and 100% humidity.
(§4) Meso Scale Discovery's 96-Well Multi-Spot Phospho-AKT (Ser473) Assay (K151CAA-3) and Phospho (Ser240/244)/Total S6RP Assay (K11139D-2) were used. In advance, a necessary amount of the supplied cell extract buffer was dispensed, and protease inhibitor cocktail and protein phosphatase inhibitor cocktail were added thereto, and kept cold on ice. The culture plates of the cells cultured with the compounds for 3 hours were taken out and the medium was removed. 100 μL of the cell extract buffer kept cold was added per well, followed by extraction by shaking at 300 r.p.m. for 1 hour using a plate shaker while maintaining a temperature of 4° C. Using the obtained extracts at 40 μL/well for the Phospho-AKT (Ser473) Assay and at 15 μL/well for the Phospho(Ser240/244)/Total S6RP Assay, reactions were conducted at 4° C. overnight with shaking at 300 r.p.m. according to the document attached to the kits. The next day, after the wells were washed three times with the supplied wash buffer, 50 μL/well of SULFO-TAG™ sandwich antibody solution was added, and reactions were carried out at room temperature for 1 hour. The wells were washed with the wash buffer three times, and 150 μL of the supplied Read Buffer T was added to each well. The amounts of phosphorylation of AKT and S6RP were measured by a SECTOR Imager 6000 plate reader (manufactured by Meso Scale Discovery) within 30 minutes of the Read Buffer T addition.
(§5) The extraction buffer-only background was subtracted from all of the measurement values, and AKT and S6RP phosphorylation signals in the control cell extract treated with only DMSO were defined as 100%. The compound concentrations and the levels of phosphorylated AKT and S6PR (expressed as a percentage relative to the control) in each concentration were plotted, and IC50 concentration (nM) that achieves 50% inhibition of the control was determined.

human AKT2 = human AKT2 (Homo sapiens (Human), UniProt P31751); assay: AKT2 kinase activity inhibition (TR-FRET, biotinylated Crosstide substrate); assay type: biochemical; conditions: preincubation 120 min at 25° C.; ATP 150 μM; Crosstide 500 nM
human AKT2, sequence (P31751 whole entry): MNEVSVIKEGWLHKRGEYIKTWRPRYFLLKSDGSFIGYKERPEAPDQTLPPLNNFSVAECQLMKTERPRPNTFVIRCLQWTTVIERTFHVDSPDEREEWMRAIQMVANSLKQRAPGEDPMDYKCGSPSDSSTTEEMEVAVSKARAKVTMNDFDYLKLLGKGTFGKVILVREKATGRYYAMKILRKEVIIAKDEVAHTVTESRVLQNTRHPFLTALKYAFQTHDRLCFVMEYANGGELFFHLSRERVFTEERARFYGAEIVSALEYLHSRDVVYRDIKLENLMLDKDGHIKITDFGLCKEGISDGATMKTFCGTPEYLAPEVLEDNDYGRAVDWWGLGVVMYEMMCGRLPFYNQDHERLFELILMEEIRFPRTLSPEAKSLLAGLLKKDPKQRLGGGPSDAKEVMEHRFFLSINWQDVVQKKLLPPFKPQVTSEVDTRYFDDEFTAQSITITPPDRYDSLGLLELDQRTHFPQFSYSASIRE
How it was run: (§6)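 Middle-T-tagged human AKT1 or AKT2, Sf9-expressed, affinity-purified and PDK1-activated, was preincubated 120 min at 25 °C with compound in 15 mM Tris-HCl pH 7.5, 0.01% Tween-20, 2 mM DTT. Kinase reaction then ran 60 min with 500 nM biotin-Crosstide, 10 mM MgCl2 and 150 μM ATP before EDTA stop. IC50 came from the Eu/APC TR-FRET 665/620 nm ratio.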

human AKT1 = human AKT1 (Homo sapiens (Human), UniProt P31749); assay: AKT1 kinase activity inhibition (TR-FRET, biotinylated Crosstide substrate); assay type: biochemical; conditions: preincubation 120 min at 25° C.; ATP 150 μM; Crosstide 500 nM
human AKT1, sequence (P31749 whole entry): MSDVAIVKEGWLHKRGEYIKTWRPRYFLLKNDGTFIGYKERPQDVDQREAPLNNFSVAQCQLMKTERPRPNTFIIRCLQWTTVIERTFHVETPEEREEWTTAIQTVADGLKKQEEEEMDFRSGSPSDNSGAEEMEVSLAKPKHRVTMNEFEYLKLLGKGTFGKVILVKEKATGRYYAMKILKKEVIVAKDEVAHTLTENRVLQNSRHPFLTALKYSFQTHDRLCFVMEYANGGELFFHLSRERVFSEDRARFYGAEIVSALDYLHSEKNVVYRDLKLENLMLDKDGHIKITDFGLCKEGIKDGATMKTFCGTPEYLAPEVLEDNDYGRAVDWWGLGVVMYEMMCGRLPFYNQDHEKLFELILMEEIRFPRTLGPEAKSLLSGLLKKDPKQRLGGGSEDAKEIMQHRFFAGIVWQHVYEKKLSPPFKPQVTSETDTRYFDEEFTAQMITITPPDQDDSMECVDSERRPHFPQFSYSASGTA
How it was run: as §6

[2] = tested on: AKT Ser473 phosphorylation; assay: Phosphorylated AKT (Ser473) inhibitory activity in cultured cell A2780 (Meso Scale Discovery assay); assay type: cell-based; conditions: A2780 cells, 3 hours treatment; average±standard deviation of three independent runs
Experimental: as §1, §2, §3, §4, §5

Compound | IC50 [1] | IC50 (human AKT2) | IC50 (human AKT1) | IC50 [2]
C[C@]1(O)C[C@@](N)(c2ccc(-c3nc4n(c3-c3ccccc3)COc3ccc(C#N)cc3-4)cc2)C1 [Example 46, 2-(4-(trans-1-amino-3-hydroxy-3-methylcyclobutyl)phenyl)-3-phenyl-5H-benzo[e]imidazo[1,2-c][1,3]oxazine-9-carbonitrile] | 53 ± 6 nM | 0.97 nM | 4.4 nM | 32 ± 5 nM
C[C@]1(O)C[C@@](N)(c2ccc(-c3nc4n(c3-c3ccccc3)COc3ccc(-c5ccn[nH]5)cc3-4)cc2)C1 [Example 48, trans-3-amino-1-methyl-3-(4-(3-phenyl-9-(1H-pyrazol-5-yl)-5H-benzo[e]imidazo[1,2-c][1,3]oxazin-2-yl)phenyl)cyclobutanol] | 86 ± 27 nM | 0.32 nM | 0.8 nM | 48 ± 5 nM
CNC(=O)c1ccc2c(c1)OCn1c-2nc(-c2ccc([C@]3(N)C[C@](C)(O)C3)cc2)c1-c1ccccc1 [Example 56, 2-(4-(trans-1-amino-3-hydroxy-3-methylcyclobutyl)phenyl)-N-methyl-3-phenyl-5H-benzo[e]imidazo[1,2-c][1,3]oxazine-8-carboxamide] | 38 ± 12 nM | 0.49 nM | 1.8 nM | 25 ± 3 nM
CCONC(=O)c1ccc2c(c1)OCn1c-2nc(-c2ccc([C@]3(N)C[C@](C)(O)C3)cc2)c1-c1ccccc1 [Example 59, 2-(4-(trans-1-amino-3-hydroxy-3-methylcyclobutyl)phenyl)-N-ethoxy-3-phenyl-5H-benzo[e]imidazo[1,2-c][1,3]oxazine-8-carboxamide] | 42 ± 14 nM | 0.53 nM | 2.1 nM | 26 ± 3 nM
